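Cells were grown in 96-well plates and exposed to each compound for 48 hours at five concentrations; endpoints were interpolated linearly between bracketing concentrations, or set to the highest concentration if not reached. GI50 marks 50% less growth.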 Activity calls are given as the source filed them. No stated cut-off is given here; in the data, active = GI50 up to about 1.1 µM and inactive = higher.
Experiments:
Test in all cases: inhibition of tumour cell growth, NCI panel, 48 h
[1] = test system: PC-3
[2] = test system: OVCAR-5
[3] = test system: MDA-N
[4] = test system: RXF 393
[5] = test system: SK-MEL-2
[6] = test system: Hs-578T
[7] = test system: UO-31
[8] = test system: KM12
[9] = test system: MOLT-4
[10] = test system: CAKI-1
[11] = test system: ACHN
[12] = test system: SF-539
[13] = test system: HCT-15
[14] = test system: 786-0
[15] = test system: SF-268
[16] = test system: SNB-19
[17] = test system: LOX IMVI
[18] = test system: DU-145
[19] = test system: MDA-MB-435
[20] = test system: M14

Structure (SMILES)	GI50 [1]	GI50 [2]	GI50 [3]	GI50 [4]	GI50 [5]	GI50 [6]	GI50 [7]	GI50 [8]	GI50 [9]	GI50 [10]	GI50 [11]	GI50 [12]	GI50 [13]	GI50 [14]	GI50 [15]	GI50 [16]	GI50 [17]	GI50 [18]	GI50 [19]	GI50 [20]
COC1=CC(=O)c2c(c(-c3csc(C)n3)cn2C)C1=O	20.9 µM (inactive)	49.5 µM (inactive)	14.8 µM (inactive)	18.3 µM (inactive)	17.1 µM (inactive)	21.6 µM (inactive)	27 µM (inactive)	22.8 µM (inactive)	31.9 µM (inactive)	29.3 µM (inactive)	25.8 µM (inactive)	17.9 µM (inactive)	6.34 µM	36 µM (inactive)	27.2 µM (inactive)	8.04 µM (inactive)	4.81 µM (inactive)	4.85 µM (inactive)	13.8 µM (inactive)	5.58 µM (inactive)
O=C1CCCCCCCCCCC1CN1CCCC1 (stereo not given)	30.8 µM (inactive)	22.3 µM (inactive)	33 µM (inactive)	15.1 µM (inactive)	17.9 µM (inactive)	17.9 µM (inactive)	35.1 µM (inactive)	25.6 µM (inactive)	39.4 µM (inactive)	43.1 µM (inactive)	54.8 µM (inactive)	22.1 µM (inactive)	32.8 µM	20.4 µM (inactive)	50 µM (inactive)	> 100 µM (inactive)	19.4 µM (inactive)	29.9 µM (inactive)	36.1 µM (inactive)	20.1 µM (inactive)
C#CCn1c(=O)c(C)cn(/C(=C\C(=O)OCC)C(=O)OCC)c1=O	13.5 µM (inactive)	7.06 µM (inactive)	7.5 µM (inactive)	1.95 µM (inactive)	16.2 µM (inactive)	24.8 µM (inactive)	12.7 µM (inactive)	30.1 µM (inactive)	2.65 µM (inactive)	1.36 µM (inactive)	1.69 µM (inactive)	1.28 µM (inactive)	1.58 µM	2.82 µM (inactive)	16.1 µM (inactive)	19.7 µM (inactive)	11.1 µM (inactive)	16.1 µM (inactive)	5.16 µM (inactive)	4.19 µM (inactive)
CN1CCC(n2[nH]c(-c3ccccc3)c(Cc3ccccc3)c2=O)CC1 [BENZPIPERYLON]	> 100 µM (inactive)	> 100 µM (inactive)	> 100 µM (inactive)	63 µM (inactive)	> 100 µM (inactive)	50.9 µM (inactive)	88.9 µM (inactive)	> 100 µM (inactive)	19.5 µM (inactive)	> 100 µM (inactive)	> 100 µM (inactive)	57.1 µM (inactive)	> 100 µM	> 100 µM (inactive)	> 100 µM (inactive)	> 100 µM (inactive)	> 100 µM (inactive)	97.3 µM (inactive)	> 100 µM (inactive)	> 100 µM (inactive)
CCN1CCC(O)(/C=C/c2ccc(Cl)c(Cl)c2)C(C(=O)/C=C/c2ccc(Cl)c(Cl)c2)C1 (stereo not given)	0.329 µM (active)	1.12 µM (inactive)	1.55 µM (inactive)	1.35 µM (inactive)	1.04 µM (active)	0.271 µM (active)	0.995 µM (active)	0.713 µM (active)	0.243 µM (active)	1.82 µM (inactive)	1.06 µM (active)	1.95 µM (inactive)	1.89 µM	1.41 µM (inactive)	1.06 µM (active)	1.89 µM (inactive)	0.794 µM (active)	1.13 µM (inactive)	0.877 µM (active)	0.733 µM (active)
C=CCNC(=O)N1CC(C)C(=O)Nc2ccccc21 (stereo not given)	> 100 µM (inactive)	> 100 µM (inactive)	> 100 µM (inactive)	> 100 µM (inactive)	> 100 µM (inactive)	> 100 µM (inactive)	> 100 µM (inactive)	> 100 µM (inactive)	> 100 µM (inactive)	> 100 µM (inactive)	> 100 µM (inactive)	> 100 µM (inactive)	> 100 µM	> 100 µM (inactive)	> 100 µM (inactive)	> 100 µM (inactive)	> 100 µM (inactive)	> 100 µM (inactive)	> 100 µM (inactive)	> 100 µM (inactive)
CO/N=C1\CC(C)N2C(=O)C(C(C)C)NC(=O)C(NC(=O)c3c4nc5c(C(=O)NC6C(=O)NC(C(C)C)C(=O)N7C(C)CC(O)C7C(=O)N(C)CC(=O)N(C)C(C(C)C)C(=O)OC6C)ccc(C)c5oc-4c(C)c(=O)c3N)C(CO)OC(=O)C(C)N(C)C(=O)CN(C)C(=O)C12 (stereo not given)	1.95 µM (inactive)	6.92 µM (inactive)	0.773 µM (active)	0.865 µM (active)	0.308 µM (active)	0.906 µM (active)	2.23 µM (inactive)	0.877 µM (active)	0.222 µM (active)	4.54 µM (inactive)	1.26 µM (inactive)	0.348 µM (active)	7.01 µM	1.01 µM (active)	0.986 µM (active)	0.684 µM (active)	0.156 µM (active)	1.97 µM (inactive)	0.824 µM (active)	2.26 µM (inactive)
Oc1ccc(Cn2c(-c3ccc(O)c(O)c3)nc3ccccc32)cc1O	22.1 µM (inactive)	38.1 µM (inactive)	15 µM (inactive)	29.4 µM (inactive)	18.4 µM (inactive)	5.79 µM (inactive)	10.8 µM (inactive)	13.5 µM (inactive)	2.52 µM (inactive)	15.5 µM (inactive)	10.9 µM (inactive)	7.45 µM (inactive)	7.48 µM	9.44 µM (inactive)	11.5 µM (inactive)	9.2 µM (inactive)	11.8 µM (inactive)	24.5 µM (inactive)	12.8 µM (inactive)	13.9 µM (inactive)
N[C@@H]1CCN(c2c(F)cc3c(=O)c(C(=O)O)cn4c3c2Oc2c-4ccc3c2ccc2ccccc23)C1	2.82 µM (inactive)	2.86 µM (inactive)	1.55 µM (inactive)	1.2 µM (inactive)	7.8 µM (inactive)	10.8 µM (inactive)	3.24 µM (inactive)	4.38 µM (inactive)	4 µM (inactive)	6.53 µM (inactive)	0.305 µM (active)	3.01 µM (inactive)	1.96 µM	0.412 µM (active)	5.73 µM (inactive)	0.344 µM (active)	1.68 µM (inactive)	3.81 µM (inactive)	3.03 µM (inactive)	5.55 µM (inactive)
COc1ccc(-c2cs/c(=N\c3ccccc3)n2CC(O)c2ccc([N+](=O)[O-])cc2)cc1 (stereo not given)	> 100 µM (inactive)	> 100 µM (inactive)	> 100 µM (inactive)	> 100 µM (inactive)	> 100 µM (inactive)	> 100 µM (inactive)	> 100 µM (inactive)	> 100 µM (inactive)	4.06 µM (inactive)	> 100 µM (inactive)	> 100 µM (inactive)	> 100 µM (inactive)	> 100 µM	> 100 µM (inactive)	> 100 µM (inactive)	> 100 µM (inactive)	> 100 µM (inactive)	> 100 µM (inactive)	> 100 µM (inactive)	> 100 µM (inactive)
CC/C(Cl)=N\OC(=O)Nc1ccccc1OC(F)(F)F	18.1 µM (inactive)	20.1 µM (inactive)	8.47 µM (inactive)	16.7 µM (inactive)	17.7 µM (inactive)	30.2 µM (inactive)	8.18 µM (inactive)	20.6 µM (inactive)	1.81 µM (inactive)	1.89 µM (inactive)	1.91 µM (inactive)	12.4 µM (inactive)	3.21 µM	10.1 µM (inactive)	25.2 µM (inactive)	22.5 µM (inactive)	2.34 µM (inactive)	18.7 µM (inactive)	19.4 µM (inactive)	6.9 µM (inactive)
CC(O)CNC1=CC(=O)C(=O)c2ccccc21 (stereo not given)	22.3 µM (inactive)	19.5 µM (inactive)	18.4 µM (inactive)	35.4 µM (inactive)	16.4 µM (inactive)	22.8 µM (inactive)	17.7 µM (inactive)	19.2 µM (inactive)	23 µM (inactive)	18.7 µM (inactive)	18.5 µM (inactive)	19.2 µM (inactive)	15 µM	17.6 µM (inactive)	16 µM (inactive)	16.7 µM (inactive)	15.9 µM (inactive)	15.5 µM (inactive)	11.3 µM (inactive)	15.5 µM (inactive)
Cc1cc(C)n(C2=NS(=O)(=O)c3ccccc3N2C)n1	> 100 µM (inactive)	> 100 µM (inactive)	> 100 µM (inactive)	> 100 µM (inactive)	> 100 µM (inactive)	> 100 µM (inactive)	> 100 µM (inactive)	> 100 µM (inactive)	> 100 µM (inactive)	> 100 µM (inactive)	> 100 µM (inactive)	> 100 µM (inactive)	> 100 µM	> 100 µM (inactive)	> 100 µM (inactive)	> 100 µM (inactive)	> 100 µM (inactive)	> 100 µM (inactive)	> 100 µM (inactive)	> 100 µM (inactive)
